pIC50: −log10 of the molar value.
Test system: HCT116
Test: In vitro cytotoxicity measured by the cell colony formation assay
Type: cell-based
Settings: HCT116 cells, 72 h drug incubation, colonies counted after 7 days; ID50 = drug concentration producing 50% inhibition of colony formation; read-out: IN VITRO ID 50 (nm) HCT116

SMILES | pIC50
CCC(=O)O[C@H]1C(=O)[C@@]2(C)C([C@H](OC(=O)c3ccccc3)[C@]3(O)C[C@H](OC(=O)[C@H](O)[C@@H](NC(=O)c4ccco4)c4ccco4)C(C)=C1C3(C)C)[C@]1(OC(C)=O)CO[C@@H]1C[C@@H]2O (some centres unmarked) [Compound 3818] | > 9.00
CC(=O)O[C@@]12CO[C@@H]1C[C@H](O)[C@@]1(C)C(=O)[C@H](OC(=O)C3CC3)C3=C(C)[C@@H](OC(=O)[C@H](O)[C@@H](NC(=O)OC(C)C)c4ccco4)C[C@@](O)([C@@H](OC(=O)c4ccccc4)C12)C3(C)C (some centres unmarked) [Compound 3853] | > 9.00
CC(=O)O[C@@]12CO[C@@H]1C[C@H](O)[C@@]1(C)C(=O)[C@H](OC(=O)C3CC3)C3=C(C)[C@@H](OC(=O)[C@H](O)[C@@H](NC(=O)c4ccco4)c4ccco4)C[C@@](O)([C@@H](OC(=O)c4ccccc4)C12)C3(C)C (some centres unmarked) [Compound 3866] | > 9.00
CCCC(=O)O[C@H]1C(=O)[C@@]2(C)C([C@H](OC(=O)c3ccccc3)[C@]3(O)C[C@H](OC(=O)[C@H](O)[C@@H](NC(=O)OC(C)C)c4cccs4)C(C)=C1C3(C)C)[C@]1(OC(C)=O)CO[C@@H]1C[C@@H]2O (some centres unmarked) [Compound 3909] | > 9.00
CCCC(=O)O[C@H]1C(=O)[C@@]2(C)C([C@H](OC(=O)c3ccccc3)[C@]3(O)C[C@H](OC(=O)[C@H](O)[C@@H](NC(=O)OCC(C)C)c4ccco4)C(C)=C1C3(C)C)[C@]1(OC(C)=O)CO[C@@H]1C[C@@H]2O (some centres unmarked) [Compound 3957] | > 8.00
C/C=C/C(=O)N[C@@H](c1ccco1)[C@@H](O)C(=O)O[C@H]1C[C@@]2(O)[C@@H](OC(=O)c3ccccc3)C3[C@](C)(C(=O)[C@H](OC(=O)C4CC4)C(=C1C)C2(C)C)[C@@H](O)C[C@H]1OC[C@@]31OC(C)=O (some centres unmarked) [Compound 3971] | > 9.00
C/C=C/C(=O)N[C@@H](c1ccco1)[C@@H](O)C(=O)O[C@H]1C[C@@]2(O)[C@@H](OC(=O)c3ccccc3)C3[C@](C)(C(=O)[C@H](OC(=O)CC)C(=C1C)C2(C)C)[C@@H](O)C[C@H]1OC[C@@]31OC(C)=O (some centres unmarked) [Compound 3982] | > 9.00
C/C=C/C(=O)N[C@@H](c1ccco1)[C@@H](O)C(=O)O[C@H]1C[C@@]2(O)[C@@H](OC(=O)c3ccccc3)C3[C@](C)(C(=O)[C@H](OC(=O)CCC)C(=C1C)C2(C)C)[C@@H](O)C[C@H]1OC[C@@]31OC(C)=O (some centres unmarked) [Compound 3994] | > 9.00
CCOC(=O)N[C@@H](c1cccs1)[C@@H](O)C(=O)O[C@H]1C[C@@]2(O)[C@@H](OC(=O)c3ccccc3)C3[C@](C)(C(=O)[C@H](OC(=O)C4CC4)C(=C1C)C2(C)C)[C@@H](O)C[C@H]1OC[C@@]31OC(C)=O (some centres unmarked) [Compound 4051] | > 9.00
CCCC(=O)N[C@@H](c1ccco1)[C@@H](O)C(=O)O[C@H]1C[C@@]2(O)[C@@H](OC(=O)c3ccccc3)C3[C@](C)(C(=O)[C@H](OC(=O)C4CC4)C(=C1C)C2(C)C)[C@@H](O)C[C@H]1OC[C@@]31OC(C)=O (some centres unmarked) [Compound 4062] | > 9.00
CC(=O)O[C@@]12CO[C@@H]1C[C@H](O)[C@@]1(C)C(=O)[C@H](OC(=O)C3CC3)C3=C(C)[C@@H](OC(=O)[C@H](O)[C@@H](NC(=O)c4cccnc4)c4cccs4)C[C@@](O)([C@@H](OC(=O)c4ccccc4)C12)C3(C)C (some centres unmarked) [Compound 4112] | > 8.00
CCC(=O)O[C@H]1C(=O)[C@@]2(C)C([C@H](OC(=O)c3ccccc3)[C@]3(O)C[C@H](OC(=O)[C@H](O)[C@@H](NC(=O)c4cccnc4)c4cccs4)C(C)=C1C3(C)C)[C@]1(OC(C)=O)CO[C@@H]1C[C@@H]2O (some centres unmarked) [Compound 4121] | > 8.00
CCCC(=O)O[C@H]1C(=O)[C@@]2(C)C([C@H](OC(=O)c3ccccc3)[C@]3(O)C[C@H](OC(=O)[C@H](O)[C@@H](NC(=O)c4cccnc4)c4cccs4)C(C)=C1C3(C)C)[C@]1(OC(C)=O)CO[C@@H]1C[C@@H]2O (some centres unmarked) [Compound 4190] | > 8.00
CCC(=O)O[C@H]1C(=O)[C@@]2(C)C([C@H](OC(=O)c3ccccc3)[C@]3(O)C[C@H](OC(=O)[C@H](O)[C@@H](NC(=O)c4ccncc4)c4cccs4)C(C)=C1C3(C)C)[C@]1(OC(C)=O)CO[C@@H]1C[C@@H]2O (some centres unmarked) [Compound 4207] | > 8.00
CC(=O)O[C@@]12CO[C@@H]1C[C@H](O)[C@@]1(C)C(=O)[C@H](OC(=O)C3CC3)C3=C(C)[C@@H](OC(=O)[C@H](O)[C@@H](NC(=O)C=C(C)C)c4cccs4)C[C@@](O)([C@@H](OC(=O)c4ccccc4)C12)C3(C)C (some centres unmarked) [Compound 4329] | > 9.00
CCC(=O)O[C@H]1C(=O)[C@@]2(C)C([C@H](OC(=O)c3ccccc3)[C@]3(O)C[C@H](OC(=O)[C@H](O)[C@@H](NC(=O)C=C(C)C)c4cccs4)C(C)=C1C3(C)C)[C@]1(OC(C)=O)CO[C@@H]1C[C@@H]2O (some centres unmarked) [Compound 4335] | > 9.00
CCCC(=O)O[C@H]1C(=O)[C@@]2(C)C([C@H](OC(=O)c3ccccc3)[C@]3(O)C[C@H](OC(=O)[C@H](O)[C@@H](NC(=O)C=C(C)C)c4cccs4)C(C)=C1C3(C)C)[C@]1(OC(C)=O)CO[C@@H]1C[C@@H]2O (some centres unmarked) [Compound 4344] | > 9.00
CC(=O)O[C@@]12CO[C@@H]1C[C@H](O)[C@@]1(C)C(=O)[C@H](OC(=O)C3CC3)C3=C(C)[C@@H](OC(=O)[C@H](O)[C@@H](NC(=O)OCC(C)C)c4ccoc4)C[C@@](O)([C@@H](OC(=O)c4ccccc4)C12)C3(C)C (some centres unmarked) [Compound 4665] | > 8.00
CCCC(=O)O[C@H]1C(=O)[C@@]2(C)C([C@H](OC(=O)c3ccccc3)[C@]3(O)C[C@H](OC(=O)[C@H](O)[C@@H](NC(=O)OCC(C)C)c4ccoc4)C(C)=C1C3(C)C)[C@]1(OC(C)=O)CO[C@@H]1C[C@@H]2O (some centres unmarked) [Compound 4704] | > 8.00
CCC(=O)O[C@H]1C(=O)[C@@]2(C)C([C@H](OC(=O)c3ccccc3)[C@]3(O)C[C@H](OC(=O)[C@H](O)[C@@H](NC(=O)OCC(C)C)c4ccsc4)C(C)=C1C3(C)C)[C@]1(OC(C)=O)CO[C@@H]1C[C@@H]2O (some centres unmarked) [Compound 4711] | > 8.00
CC(=O)O[C@@]12CO[C@@H]1C[C@H](O)[C@@]1(C)C(=O)[C@H](OC(=O)C3CC3)C3=C(C)[C@@H](OC(=O)[C@H](O)[C@H](C=C(C)C)NC(=O)OCC(C)C)C[C@@](O)([C@@H](OC(=O)c4ccccc4)C12)C3(C)C (some centres unmarked) [Compound 4720] | > 8.00
CCC(=O)O[C@H]1C(=O)[C@@]2(C)C([C@H](OC(=O)c3ccccc3)[C@]3(O)C[C@H](OC(=O)[C@H](O)[C@@H](NC(=O)OCC(C)C)C4CC4)C(C)=C1C3(C)C)[C@]1(OC(C)=O)CO[C@@H]1C[C@@H]2O (some centres unmarked) [Compound 4799] | > 9.00
CCCC(=O)O[C@H]1C(=O)[C@@]2(C)C([C@H](OC(=O)c3ccccc3)[C@]3(O)C[C@H](OC(=O)[C@H](O)[C@@H](NC(=O)OCC(C)C)C4CC4)C(C)=C1C3(C)C)[C@]1(OC(C)=O)CO[C@@H]1C[C@@H]2O (some centres unmarked) [Compound 4808] | > 8.00
CCCC(=O)O[C@H]1C(=O)[C@@]2(C)C([C@H](OC(=O)c3ccccc3)[C@]3(O)C[C@H](OC(=O)[C@H](O)[C@@H](NC(=O)OCC(C)C)c4ccsc4)C(C)=C1C3(C)C)[C@]1(OC(C)=O)CO[C@@H]1C[C@@H]2O (some centres unmarked) [Compound 4834] | > 8.00
C/C=C/C(=O)N[C@@H](c1ccoc1)[C@@H](O)C(=O)O[C@H]1C[C@@]2(O)[C@@H](OC(=O)c3ccccc3)C3[C@](C)(C(=O)[C@H](OC(=O)CC)C(=C1C)C2(C)C)[C@@H](O)C[C@H]1OC[C@@]31OC(C)=O (some centres unmarked) [Compound 4888] | > 9.00
C/C=C/C(=O)N[C@@H](c1ccoc1)[C@@H](O)C(=O)O[C@H]1C[C@@]2(O)[C@@H](OC(=O)c3ccccc3)C3[C@](C)(C(=O)[C@H](OC(=O)CCC)C(=C1C)C2(C)C)[C@@H](O)C[C@H]1OC[C@@]31OC(C)=O (some centres unmarked) [Compound 4919] | > 9.00
